Assay [1] relates to SARS-CoV-2. As to the kind of experiment: Inhibitory activity of cytopathic effect (CPE) in Vero E6/TMPRSS2 cells. It is filed as cell-based. On the technique in general: Cytopathic effects are the visible damage that an infection or toxin causes in cultured cells.
A further assay has as its target SARS-CoV-2 3CL protease (Severe acute respiratory syndrome coronavirus 2, UniProt P0DTD1). As to the kind of experiment: Inhibitory activity test against SARS-CoV-2 3CL proteases. The assay is classed as biochemical.
Assay [2] concerns SARS-CoV-2. As to the kind of experiment: Inhibitory activity of cytopathic effect (CPE) in HEK293T/ACE2-TMPRSS2 cells. The settings on record: Severe acute respiratory syndrome coronavirus 2, HEK-293T, 72 h; HEK293T/ACE2-TMPRSS2 cells, cultured 3 days, CellTiter-Glo 2.0 luminescence; read-out: EC50 (50% SARS-CoV-2 infected cell death inhibitory concentration). The assay is classed as cell-based.

Where [3] appears, read: Severe acute respiratory syndrome coronavirus 2, VeroE6/TMPRSS2, 72 h, 50% SARS-CoV-2 infected cell death inhibitory concentration, CellTiter-Glo 2.0 after 3 days culture.
The mark [4] stands for this setting: read-out: IC50 (50% SARS-CoV-2 3CL protease inhibitory concentration).

The text below walks through data of US20240400560A1, “BICYCLIC HETEROCYCLIC DERIVATIVE HAVING VIRAL GROWTH INHIBITORY ACTIVITY AND PHARMACEUTICAL COMPOSITION CONTAINING SAME” (Shionogi & Co., Ltd., priority 2021, published 2024).

Like-named read-outs stand apart in the source and are kept apart here.

On to `Cn1cnc(Cn2c(=O)c3c(Cl)cc(-c4cc5c(cc4Cl)NC(=O)C5)cc3n(Cc3cc(F)c(F)c(F)c3)c2=O)n1` [Compound I-0003], for which the EC50 in the assay on SARS-CoV-2 [1] (setting [3]) is 692 nM. At SARS-CoV-2 3CL protease (setting [4]), the IC50 amounted to 8.6 nM.
For the compound `Cc1cncc(-n2c(=O)c3c(Cl)cc(-c4cc5c(cc4Cl)NC(=O)C5)cc3n(Cc3ccc(F)c(C#N)c3)c2=O)c1` [Compound I-0004], the EC50 in the assay on SARS-CoV-2 [1] (setting [3]) is 1160 nM. The IC50 at SARS-CoV-2 3CL protease (setting [4]) was 9.9 nM.
Take `Cc1cncc(-n2c(=O)c3c(Cl)cc(-c4cc(C(N)=O)ccc4Cl)cc3n(Cc3cc(F)c(F)c(F)c3)c2=O)c1` [Compound I-0007]: the EC50 in the assay on SARS-CoV-2 [1] (setting [3]) worked out at 1140 nM. Also, at SARS-CoV-2 3CL protease (setting [4]), the IC50 turned out to be 19 nM.
In the assay with SARS-CoV-2 [1] (Severe acute respiratory syndrome coronavirus 2, VeroE6/TMPRSS2, 50% SARS-CoV-2 infected cell death inhibitory concentration, class symbols), `Cc1cncc(-n2c(=O)c3c(Cl)cc(-c4cc(C(N)=O)ccc4Cl)cc3n(Cc3ccc(F)c(C#N)c3)c2=O)c1` [Compound I-0010] gave an EC50 of 1000 to 10000 nM. Further, on SARS-CoV-2 3CL protease (setting [4]), the IC50 is below 100 nM.
Regarding `[2H]C([2H])([2H])O[C@@H]1CCN(c2cc3c(c(OC)n2)c(=O)n(-c2cncc(C#N)c2)c(=O)n3-c2ccc(F)c(F)c2)C1` [Compound I-1026], the EC50 in the assay on SARS-CoV-2 [2] was below 100 nM. The IC50 on SARS-CoV-2 3CL protease (setting [4]) was below 100 nM.
In the case of `COc1nc(N2CC[C@@H](O)C2)cc2c1c(=O)n(-c1cncc(C#N)c1)c(=O)n2-c1ccc(F)c(F)c1` [Compound I-1027], in the assay on SARS-CoV-2 [2], the EC50 was below 100 nM. Moreover, at SARS-CoV-2 3CL protease (setting [4]), the IC50 was below 100 nM.
Turning to `[2H]C([2H])([2H])O[C@@H]1CCN(c2cc3c(c(OC)n2)c(=O)n(-c2cncc(F)c2)c(=O)n3-c2ccc(F)c(F)c2)C1` [Compound I-1028], the EC50 in the assay on SARS-CoV-2 [2] is below 100 nM. The IC50 on SARS-CoV-2 3CL protease (setting [4]) was below 100 nM.
With `COc1nc(NC2CC2)cc2c1c(=O)n(-c1cnc3cc(F)ccn13)c(=O)n2-c1ccc(F)c(Cl)c1` [Compound I-1029], the EC50 in the assay with SARS-CoV-2 [2] is below 100 nM. For the same compound, the IC50 at SARS-CoV-2 3CL protease (setting [4]) was below 100 nM.
On to `COc1nc(N2C[C@@H]3C[C@H]2CO3)cc2c1c(=O)n(-c1cncc(F)c1)c(=O)n2-c1ccc(F)c(F)c1` [Compound I-1030], for which the EC50 with SARS-CoV-2 [2] is below 100 nM. The IC50 on SARS-CoV-2 3CL protease (setting [4]) was below 100 nM.
As for `COc1nc(N2CC[C@@H](NC(C)=O)C2)cc2c1c(=O)n(-c1cnc3cc(F)ccn13)c(=O)n2-c1ccc(F)c(Cl)c1` [Compound I-1031], the EC50 in the assay on SARS-CoV-2 [2] was 100 to 1000 nM. The IC50 on SARS-CoV-2 3CL protease (setting [4]) was below 100 nM.
As to `CCc1cc2c(c(OC)n1)c(=O)n(-c1cnc3cc(F)ccn13)c(=O)n2-c1ccc(F)c(Cl)c1` [Compound I-1032], the EC50 with SARS-CoV-2 [2] was below 100 nM. In addition, on SARS-CoV-2 3CL protease (setting [4]), the IC50 was below 100 nM.
On to `COC[C@@H]1CCN(c2cc3c(c(OC)n2)c(=O)n(-c2cnc4cc(F)ccn24)c(=O)n3-c2ccc(F)c(Cl)c2)C1` [Compound I-1033], for which the EC50 in the assay with SARS-CoV-2 [2] is below 100 nM. Moreover, the IC50 on SARS-CoV-2 3CL protease (setting [4]) is below 100 nM.
In the case of `COc1nc(N(C)C(C)C)cc2c1c(=O)n(-c1cnc3cc(F)ccn13)c(=O)n2-c1ccc(F)c(Cl)c1` [Compound I-1034], the EC50 with SARS-CoV-2 [2] is below 100 nM. At SARS-CoV-2 3CL protease (setting [4]), the IC50 was below 100 nM.
For the compound `COc1nc(N2CC(F)(F)C2)cc2c1c(=O)n(-c1cnc3cc(F)ccn13)c(=O)n2-c1ccc(F)c(Cl)c1` [Compound I-1035], the EC50 in the assay with SARS-CoV-2 [2] was below 100 nM. This compound also came in with an IC50 against SARS-CoV-2 3CL protease (IC50 (50% SARS-CoV-2 3CL protease inhibitory concentration)) below 100 nM.
As to `COc1nc(N2CCC(O)(C(F)F)C2)cc2c1c(=O)n(-c1cncc(Cl)c1)c(=O)n2-c1ccc(F)c(Cl)c1` (stereo not drawn) [Compound I-1036], the EC50 in the assay on SARS-CoV-2 [2] is below 100 nM. Also, the IC50 at SARS-CoV-2 3CL protease (setting [4]) was below 100 nM.
Turning to `COc1nc(N2CCC(O)(CF)C2)cc2c1c(=O)n(-c1cnc3cc(F)ccn13)c(=O)n2-c1ccc(F)c(Cl)c1` (stereo not drawn) [Compound I-1037], in the assay on SARS-CoV-2 [2], the EC50 is below 100 nM. In addition, the IC50 at SARS-CoV-2 3CL protease (setting [4]) was below 100 nM.
Take `[2H]C([2H])([2H])O[C@@H]1CCN(c2cc3c(c(OC)n2)c(=O)n(-c2cncc(OC(F)F)c2)c(=O)n3-c2ccc(F)c(F)c2)C1` [Compound I-1038]: the EC50 in the assay with SARS-CoV-2 [2] is below 100 nM. At SARS-CoV-2 3CL protease (setting [4]), the IC50 is below 100 nM.
On to `COc1nc(N2CCC3(COC3)C2)cc2c1c(=O)n(-c1cnc3cc(F)ccn13)c(=O)n2-c1ccc(F)c(Cl)c1` [Compound I-1039], for which, in the assay with SARS-CoV-2 [2], the EC50 is below 100 nM. For the same compound, the IC50 at SARS-CoV-2 3CL protease (setting [4]) is below 100 nM.
As for `COc1nc(N2CC[C@@H](O)C2)cc2c1c(=O)n(-c1cncc(OC(F)F)c1)c(=O)n2-c1ccc(F)c(F)c1` [Compound I-1040], the EC50 in the assay with SARS-CoV-2 [2] is below 100 nM. Moreover, the IC50 at SARS-CoV-2 3CL protease (setting [4]) was below 100 nM.
Regarding `COc1nc(NCC(F)(F)F)cc2c1c(=O)n(-c1cnc3cc(F)ccn13)c(=O)n2-c1ccc(F)c(Cl)c1` [Compound I-1041], in the assay on SARS-CoV-2 [2], the EC50 is below 100 nM. Besides, the IC50 at SARS-CoV-2 3CL protease (setting [4]) is below 100 nM.
On to `CNc1cc2c(c(OC)n1)c(=O)n(-c1cnc3cc(F)ccn13)c(=O)n2-c1ccc(F)c(Cl)c1` [Compound I-1042], for which the EC50 in the assay with SARS-CoV-2 [2] was below 100 nM. For the same compound, the IC50 at SARS-CoV-2 3CL protease (setting [4]) was below 100 nM.
